Measured values as given in BindingDB's records for doi:10.1111/cbdd.12265 (Birla Institute of Technology, 2014).

Biological target: T1, Secreted chorismate mutase (Mycobacterium tuberculosis (strain ATCC 25618 / H37Rv), UniProt P9WIB9)
T1 sequence (P9WIB9 whole entry): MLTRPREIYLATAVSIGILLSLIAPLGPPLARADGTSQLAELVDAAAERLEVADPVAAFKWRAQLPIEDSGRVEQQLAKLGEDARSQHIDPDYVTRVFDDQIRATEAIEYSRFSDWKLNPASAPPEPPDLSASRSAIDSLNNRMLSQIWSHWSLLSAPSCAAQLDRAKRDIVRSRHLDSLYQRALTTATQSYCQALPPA
Experiment: CM Assay
Settings: 37 °C
Procedure: The reaction was initiated by the addition of 150pmoles of enzyme to a mixture of inhibitor (40µM, 20 µM, 10 µM, 5 µM, 1 µM and 0.5 µM ), 20µM chorismic acid in 50mM Tris-HCl, 0.5mM EDTA, 0.1mg/ml BSA, 10mM β-mercaptoethanol (pH-7.5). The assay mixture was incubated at 37°C for 5 min and the reaction was terminated by the addition of 40µL of 1N HCl and further incubation at 37°C for 1 to 5 min. Phenyl pyruvate formed at the end of reaction is converted to chromophoric base with the addition of 80µL 2.5N NaOH. The absorbance of each sample was read at 320nm. Positive control contained the assay mixture with carvacrol(40µM, 20 µM, 10 µM, 5 µM, 1 µM and 0.5 µM ).

O=C1Nc2ccc(-c3ccccc3)cc2C1=O
IC50: 37.1 µM

CN1C(=O)C(=O)c2ccccc21 [1-methyl-2,3-dihydro-1H-indole-2,3-dione]
IC50: 1.96 µM

O=C1C(=O)N(c2ccccc2)c2ccccc21 [1-phenyl-2,3-dihydro-1H-indole-2,3-dione]
IC50: 23.3 µM

CC(C)(C)C(=O)N1C(=O)C(=O)c2ccccc21 [1‐(2,2‐dimethylpropanoyl)indole‐2,3‐dione (Compound 8)]
IC50: 41 µM

C=CCN1C(=O)C(=O)c2ccccc21 [1‐(prop‐2‐en‐1‐yl)indole‐2,3‐dione (Compound 5)]
IC50: 96.6 µM

CC(=O)n1c(O)c(NC(=S)N=N)c2ccccc21 [1‐[(3Z)‐1‐acetyl‐2‐oxoindol‐3‐ylidene]‐3‐ aminothiourea (Compound 11)]
IC50: 30.5 µM

CC(=O)N1C(=O)C(=NC(=O)NN)c2ccccc21 [1‐[(3Z)‐1‐acetyl‐2‐oxoindol‐3‐ylidene]‐3‐aminourea (Compound 12)]
IC50: 25 µM

CCN1C(=O)C(=O)c2ccccc21 [1‐ethylindole‐2,3‐dione (Compound 3)]
IC50: 22.7 µM

CC(C)N1C(=O)C(=O)c2ccccc21 [1‐isopropylindole‐2,3‐dione (Compound 4)]
IC50: 75.1 µM

O=C1Nc2ccccc2C1=O [2,3-dihydro-1H-indole-2,3-dione]
IC50: 1.08 µM

O=C1Nc2ccccc2/C1=C/c1ccc([N+](=O)[O-])cc1 [3-(4-nitrobenzylidene)indolin-2-one (Compound 24)]
IC50: 1.01 µM

O=C1Nc2ccccc2/C1=C/c1ccc([N+](=O)[O-])s1 [3-((5-nitrothiophen-2-yl)methylene)indolin-2-one (Compound 25)]
IC50: 0.93 µM

NNC(=S)N=C1C(=O)Nc2ccccc21 [3‐amino‐1‐[(3Z)‐2‐oxo‐1H‐indol‐3‐ylidene]thiourea (Compound 9)]
IC50: 66.9 µM

NNC(=O)/N=C1\C(=O)Nc2ccccc21 [3‐amino‐1‐[(3Z)‐2‐oxo‐1H‐indol‐3‐ylidene]urea (Compound 10)]
IC50: 54.1 µM

O=C1Nc2ccc(-c3cccc(Cl)c3Cl)cc2C1=O [5‐(2,3‐dichlorophenyl)‐1H‐indole‐2,3‐dione (Compound 17)]
IC50: 95.7 µM

Cc1ccc(C)c(-c2ccc3c(c2)C(=O)C(=O)N3)c1 [5‐(2,5‐dimethylphenyl)‐1H‐indole‐2,3‐dione (Compound 18)]
IC50: 36.5 µM

CN1CCN(c2ccc3c(c2)C(=O)C(=O)N3)CC1 [5‐(4‐methylpiperazin‐1‐yl)‐1H‐indole‐2,3‐dione (Compound 20)]
IC50: 31.9 µM

O=C1Nc2ccc(N3CCNCC3)cc2C1=O [5‐(piperazin‐1‐yl)‐1H‐indole‐2,3‐dione (Compound 19)]
IC50: 39.9 µM

O=C1Nc2ccc(N3CCCCC3)cc2C1=O [5‐(piperidin‐1‐yl)‐1H‐indole‐2,3‐dione (Compound 22)]
IC50: 25.6 µM

O=C1Nc2ccc(N3CCN(C(=O)c4ccco4)CC3)cc2C1=O [5‐[4‐(furan‐2‐carbonyl)piperazin‐1‐yl]‐1H‐indole‐ 2,3‐dione (Compound 23)]
IC50: 28.8 µM

O=C1Nc2ccc(N3CCN(c4cccc(C(F)(F)F)c4)CC3)cc2C1=O [5‐{4‐[3‐(trifluoromethyl)phenyl]piperazin‐1‐yl}‐1H‐ indole‐2,3‐dione (Compound 21)]
IC50: 55.7 µM

O=NC1C(=O)Nc2ccccc21 (stereo not given) [(3Z)‐3‐(hydroxyimino)‐1H‐indol‐2‐one (Compound 15)]
IC50: 98.1 µM

O=C1Nc2ccccc2/C1=N/c1ncc([N+](=O)[O-])s1 [(3Z)‐3‐[(5‐nitro‐1,3‐thiazol‐2‐yl)imino]‐1H‐indol‐2‐ one (Compound 13)]
IC50: > 100 µM

O=C1Nc2ccccc2/C1=N/c1nc2ccc([N+](=O)[O-])cc2s1 [(3Z)‐3‐[(6‐nitro‐1,3‐benzothiazol‐2‐yl)imino]‐1H‐ indol‐2‐one (Compound 14)]
IC50: > 100 µM

CC(=O)N1C(=O)C(=O)c2ccccc21 [Acetylisatin (Compound 7)]
IC50: 0.99 µM
